Measurements taken from US20100196586A1, “FOODSTUFF COMPOSITION TO IMPROVE DIGESTIBILITY OF FOODSTUFF LIPIDS” (ISL-INNOVATION SANTE LIPIDES, priority 2007, published 2010).

How the values were obtained:
[1] = tested on: bile salt stimulated lipase (BSSL); assay: Intestinal lipolysis of triolein emulsions by bile salt stimulated lipase; type: biochemical, human
Text: (§1) The compounds have been tested in vitro in different experimental conditions for their ability to promote the action of three major lipolytic enzymes of the digestive tract, i.e., gastric lipase, colipase-dependent pancreatic lipase, bile salt stimulated lipase (BSSL), and their isoforms and variants.
(§2) Different lipidic emulsions have been prepared by sonication of a mixture of triolein (TO) (98.7%), cholesterol (0.5%) and phospholipids (0.8%).
(§3) The lipolysis tests have been carried out in vitro in conditions that mimic the physiology of the human digestive tract, either healthy or with pancreatic insufficiency (PI).
[…] Several variants of BSSL have been tested, numbered 1 to 8.
(§4) Lipolysis by the three main digestive tract lipases has also been tested in more complex conditions, i.e. in the presence of lipidic emulsions with a mixture of proteins plus lactose added in proportions that are found in normal or medically assisted nutrition.

gastric lipase = assay: Gastric lipolysis of triolein emulsions stabilized by phospholipids, with purified gastric lipases or gastric juices; type: biochemical, human
Text: as §1, §2, §3
Gastric lipolysis in the presence of gastric lipase has been carried out with purified lipases or gastric juices from different subjects at pH 5.40, at 37° C. for 60 minutes with a gastric lipase (U/mL)/lipids (micromoles of TO) ratio of 2.
as §4

[2] = molecular target: T1, colipase dependent pancreatic lipase (Sus scrofa, UniProt P00591); assay: Intestinal lipolysis of triolein emulsions by colipase dependent pancreatic lipase or pancreatine; type: biochemical, pig; conditions: for yield of pancreatic lipolysis (percentage of hydrolysis) compared with PC P/O emulsion: normal physiological conditions, two forms of pig pancreatic lipase (pure lipase or powder of pancreas), FIG. 3
T1 sequence (P00591 1-450): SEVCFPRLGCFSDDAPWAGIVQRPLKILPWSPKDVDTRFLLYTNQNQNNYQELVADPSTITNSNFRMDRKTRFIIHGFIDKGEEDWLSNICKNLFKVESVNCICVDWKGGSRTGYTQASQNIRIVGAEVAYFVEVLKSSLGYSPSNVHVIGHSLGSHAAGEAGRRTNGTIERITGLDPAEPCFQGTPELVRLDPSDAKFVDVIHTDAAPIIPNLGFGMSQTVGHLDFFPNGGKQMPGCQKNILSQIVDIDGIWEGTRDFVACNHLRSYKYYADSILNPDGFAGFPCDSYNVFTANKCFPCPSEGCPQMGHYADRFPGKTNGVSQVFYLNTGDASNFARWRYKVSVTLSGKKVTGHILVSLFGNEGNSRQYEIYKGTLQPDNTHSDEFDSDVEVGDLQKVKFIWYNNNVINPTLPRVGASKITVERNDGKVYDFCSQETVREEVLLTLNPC
T1 sequence (P02703 23-112 partner): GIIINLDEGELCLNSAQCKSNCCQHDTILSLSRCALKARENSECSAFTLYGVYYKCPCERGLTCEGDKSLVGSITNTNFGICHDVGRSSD
Text: as §1, §2, §3
Intestinal lipolysis in the presence of colipase dependent pancreatic lipase (lipase/colipase 1/1 molar ratio) or of pig pancreatic extract (pancreatine) was conducted at pH […] at 37° C. for 15 minutes, with a pancreatic lipase (U/mL)/micromoles of TO ratio of 20, and in the presence of pig bile in sufficient quantity for a bile salt concentration of 2 or 8 mM.
as §4

[3] = cited from earlier work
[4] = conditions of pancreatic insufficiency, mixture of pure bile salts, FIG. 6
[5] = gastric juices of subject, pH 5.40, 37° C., 60 minutes, FIG. 1
[6] = gastric juices of different subjects, irrespective of the origin of gastric juice, FIG. 2

Molecule: DHA phosphatidylethanolamine [PE DHA]
- yield of lipolysis by BSSL (percentage of hydrolysis) compared with PC P/O emulsion [1, 4]: significantly higher
- yield of lipolysis by BSSL (percentage of hydrolysis) compared with PC P/O emulsion ([1]; normal conditions, FIG. 4): significantly higher

Molecule: CCCCCCCC/C=C\CCCCCCCC(=O)OC[C@@H](O)COP(=O)(O)O [LPAo, oleyl lysophosphatidic acid]
- yield of gastric lipolysis (percentage of hydrolysis) compared with the control CT emulsion (gastric lipase; [5]): significantly higher

Molecule: lysophosphatidylserine [LPS]
- yield of pancreatic lipolysis (percentage of hydrolysis) compared with PC P/O emulsion [2]: significantly higher

Molecule: lysophosphatidylinositol [LPI]
- activator effect in the presence of a mixture of protein plus lactose ([1]; BSSL, complex environment compared with simple emulsion): identical or even maximized
- yield of lipolysis by BSSL (percentage of hydrolysis) compared with PC P/O emulsion [1, 4]: significantly higher
- activator effect on different variants of BSSL (1 to 8) compared with PC P/O ([1]; normal conditions (A) or conditions of pancreatic insufficiency (B), efficacy varies with type of BSSL, FIG. 11): confirmed
- yield of lipolysis by BSSL (percentage of hydrolysis) compared with PC P/O emulsion ([1]; normal conditions, FIG. 4): significantly higher
- yield of lipolysis by BSSL (percentage of hydrolysis) compared with PC P/O and complex PC P/O ([1]; purified human BSSL, pH 7.00, bile salts 8 mM (normal) or 2 mM (pancreatic insufficiency), with or without lactose and milk proteins, FIG. 9): significantly higher
- yield of pancreatic lipolysis (percentage of hydrolysis) compared with PC P/O ([2]; conditions of pancreatic insufficiency, purified lipase, intestinal pH values typical of pancreatic insufficiency, FIG. 5): significantly higher
- yield of pancreatic lipolysis (percentage of hydrolysis) compared with PC P/O emulsion [2]: significantly higher
- activator effect in the presence of a mixture of protein plus lactose ([2]; pancreatic lipase, complex environment compared with simple emulsion): identical or even maximized
- effect of the dose of LPI on the yield of gastric lipolysis of the LHO emulsion (gastric lipase; LPI 0.1, 0.4 and 0.8% of total lipids, total phospholipids 0.8% of total lipids, gastric juices of subjects, FIG. 12): increase with increasing concentrations of LPI
- yield of gastric lipolysis (percentage of hydrolysis) compared with PC P/O and complex PC P/O (gastric lipase; different human gastric juices, simple emulsions and complex emulsions (lactose and milk proteins), FIG. 7): significantly higher
- yield of gastric lipolysis (percentage of hydrolysis) compared with the control CT emulsion (gastric lipase; [6]): significantly higher
- yield of gastric lipolysis (percentage of hydrolysis) compared with the control CT emulsion (gastric lipase; [5]): significantly higher
- activator effect in the presence of a mixture of protein plus lactose (gastric lipase; gastric lipase, complex environment compared with simple emulsion): identical or even maximized
- quantity at which the activator effect seems optimal (gastric lipase; gastric lipolysis of LHO/LPI emulsions, dose dependent): 0.8 % of total lipids
- effect on gastric lipase degraded at its N-terminal end (yield of gastric lipolysis vs CT and/or PC P/O) (gastric lipase; purified gastric lipases or juices of different subjects with different degrees of N-terminal degradation, FIG. 10): reactivates degraded gastric lipase

Molecule: egg-derived lysophosphatidylcholine [LPCO]
- yield of lipolysis by BSSL (percentage of hydrolysis) compared with PC P/O emulsion [1, 4]: significantly higher
- yield of lipolysis by BSSL (percentage of hydrolysis) compared with PC P/O emulsion ([1]; normal conditions, FIG. 4): significantly higher
- yield of gastric lipolysis (percentage of hydrolysis) compared with the control CT emulsion (gastric lipase; [6]): significantly higher
- yield of gastric lipolysis (percentage of hydrolysis) compared with the control CT emulsion (gastric lipase; [5]): significantly higher

B1: recombinant gastric lipase: recombinant dog gastric lipase (Merispase, Meristem) (protein, UniProt P80035 20-398, looked up)
Gastric triacylglycerol lipase: LFGKLHPTNPEVTMNISQMITYWGYPAEEYEVVTEDGYILGIDRIPYGRKNSENIGRRPVAFLQHGLLASATNWISNLPNNSLAFILADAGYDVWLGNSRGNTWARRNLYYSPDSVEFWAFSFDEMAKYDLPATIDFILKKTGQDKLHYVGHSQGTTIGFIAFSTNPKLAKRIKTFYALAPVATVKYTETLLNKLMLVPSFLFKLIFGNKIFYPHHFFDQFLATEVCSRETVDLLCSNALFIICGFDTMNLNMSRLDVYLSHNPAGTSVQNVLHWSQAVKSGKFQAFDWGSPVQNMMHYHQSMPPYYNLTDMHVPIAVWNGGNDLLADPHDVDLLLSKLPNLIYHRKIPPYNHLDFIWAMDAPQAVYNEIVSMMGTDNK
- increase of the absorption level of lipids ([3]; administered together with pancreatic extracts, in 7 of the 11 patients studied): 17%
- rate of absorption of lipids ([3]; subjects suffering from cystic fibrosis, alone, 600 mg/day, 28% without supplement): 50%
